# Active and inactive are the calls of the source.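 How the source made its calls: active means IC50 below 20 µM in the confirmatory dose-response test; inactive means the rest.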
# Target: Hexokinase HKDC1 (Homo sapiens) (UniProt Q2TB90)
# Test: HKDC1 hexokinase inhibitors, SAR follow-up, biochemical, set 2 (AID 588355)
# Conditions: recombinant HKDC1, G6PDH/diaphorase/resazurin coupled fluorescence
# Sequence of Hexokinase HKDC1 (Homo sapiens) (Q2TB90 whole entry, looked up): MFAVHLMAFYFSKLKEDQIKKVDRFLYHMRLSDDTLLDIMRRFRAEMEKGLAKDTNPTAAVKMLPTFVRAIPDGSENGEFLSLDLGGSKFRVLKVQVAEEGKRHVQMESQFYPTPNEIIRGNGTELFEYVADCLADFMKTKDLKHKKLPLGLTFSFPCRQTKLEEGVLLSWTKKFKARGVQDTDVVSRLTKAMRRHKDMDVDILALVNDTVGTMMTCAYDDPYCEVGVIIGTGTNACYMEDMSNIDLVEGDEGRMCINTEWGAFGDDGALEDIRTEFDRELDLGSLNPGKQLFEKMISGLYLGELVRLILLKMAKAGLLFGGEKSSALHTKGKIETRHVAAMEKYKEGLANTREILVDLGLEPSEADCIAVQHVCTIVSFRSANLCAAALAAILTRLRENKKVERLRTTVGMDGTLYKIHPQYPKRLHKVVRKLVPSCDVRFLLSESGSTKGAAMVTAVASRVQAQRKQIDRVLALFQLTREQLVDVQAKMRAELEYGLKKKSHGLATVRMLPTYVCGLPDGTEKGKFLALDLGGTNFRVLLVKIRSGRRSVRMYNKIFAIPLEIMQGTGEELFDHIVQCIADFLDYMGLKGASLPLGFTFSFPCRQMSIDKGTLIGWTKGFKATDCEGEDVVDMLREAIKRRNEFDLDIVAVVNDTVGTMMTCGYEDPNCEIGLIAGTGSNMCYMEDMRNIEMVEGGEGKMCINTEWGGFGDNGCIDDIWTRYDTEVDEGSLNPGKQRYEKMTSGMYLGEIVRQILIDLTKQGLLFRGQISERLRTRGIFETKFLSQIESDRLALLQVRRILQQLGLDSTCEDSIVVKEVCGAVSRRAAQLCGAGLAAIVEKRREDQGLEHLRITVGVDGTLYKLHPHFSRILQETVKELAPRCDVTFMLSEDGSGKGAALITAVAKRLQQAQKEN
compound,measurement,value
COc1cc2c(cc1OC)-c1cc(N3CCc4ccccc4C3)nc(=O)n1CC2,IC50,inactive

# Reference: PubChem BioAssay AID588355 (Sanford-Burnham Center for Chemical Genomics, 2011)
